Data on five molecules can be found in patent US20230063703A1, “DRUG AND FOOD FOR TREATING AND/OR PREVENTING ENTERITIS AND/OR HEPATITIS” (priority 2020, published 2023).

For data set [1], the system named is DSS-induced colitis model mice. The data set can be described thus: Enteritis-inhibiting effect of single species D-amino acids in DSS-induced colitis model mice. In kind it is in vivo, mice (B6CL57). The note with it: single D-amino acid in drinking water 3 weeks, then 2% DSS; 8th day; compared with water containing all five D-amino acids. Here is the method:
The DAI scores were assigned for the following: diarrhea symptom (normal: 0, soft feces: 1, mild diarrhea: 2, moderate diarrhea: 3, severe diarrhea: 4); bloody stool symptom (normal: 0, mild bloody stool: 1, moderate bloody stool: 2, severe bloody stool: 3, severe bloody stool with anal bleeding: 4); and body weight reduction (None: 0, 1% to 5%: 1, 5% to 10%: 2, 10% to 20%: 3, ÷20%: 4), and the total values were calculated (minimum 0 points, maximum 12 points), for each mouse.

The subject of the next data set is kidneys. Particulars: cited from earlier work; for toxicity on the kidneys: rat, in vivo, ip; for amino acid excretion: after 2 hours.
Data set [2] can be described thus: Blood D-serine concentration in mice given drinking water containing D-serine. In kind it is in vivo. The note with it: free access to drinking water containing 1% D-serine. An excerpt: The blood concentration of administered D-serine is preferably 5 nmol/mL or greater, more preferably 10 nmol/mL or greater and even more preferably 50 nmol/mL or greater. The D-serine blood concentration is also preferably 1 μmol/mL or lower, more preferably 0.5 μmol/mL or lower and even more preferably 0.1 μmol/mL or lower.

Where two headings read alike, the source gives them in different places.

Consider `C[C@@H](N)C(=O)O` [D-Ala, D-alanine], for which, in data set [1], the DAI score entry is “equivalent to drinking water containing all five D-amino acids” and the “body weight reduction suppressing effect” value is on record as “equivalent to drinking water containing all five D-amino acids”.
`N[C@H](CC(=O)O)C(=O)O` [D-Asp, D-aspartic acid]: in data set [1], the DAI score result is on record as “equivalent to drinking water containing all five D-amino acids” and the “body weight reduction suppressing effect” value is given as “equivalent to drinking water containing all five D-amino acids”.
Take `N[C@H](CCC(=O)O)C(=O)O` [D-Glu, D-glutamic acid]: in data set [1], the DAI score result was “significantly inhibited enteritis more than the drinking water containing all five D-amino acids” and the “body weight reduction suppressing effect” value is listed as “significantly inhibited enteritis more than the drinking water containing all five D-amino acids”.
Consider `N[C@H](CO)C(=O)O` [D-Ser, D-serine], for which the DAI score entry in data set [1] is reported as “equivalent to drinking water containing all five D-amino acids”. Further, the “body weight reduction suppressing effect” value in data set [1] is “equivalent to drinking water containing all five D-amino acids”. In addition, the “toxicity on the kidneys” value with kidneys (26 mg/kg) is “no toxicity”; in the data set on kidneys (267 mg/kg), “toxicity of D-serine on the kidneys was exhibited”; with kidneys (800 mg/kg), “toxicity of D-serine on the kidneys was exhibited”. Besides, the amino acid excretion entry in the data set on kidneys (rats, intraperitoneal, 26 mg/kg) was “no effect”; in the data set on kidneys (rats, intraperitoneal, 80 mg/kg) it was “no effect”; in the data set on kidneys (rats, intraperitoneal, 267 mg/kg), “significantly increased”; in the data set on kidneys (rats, intraperitoneal, 800 mg/kg), “significantly increased”. The nephrotoxicity entry with kidneys (rats, intraperitoneal, doses such as 800 mg/kg, 400 mg/kg or 250 mg/kg) is “causes nephrotoxicity”. Moreover, in data set [2], the “blood D-serine concentration” value is on record as 100 nmol/mL.
As for `N[C@H](Cc1c[nH]c2ccccc12)C(=O)O` [D-Trp, D-tryptophan], in data set [1], the DAI score result is “significantly inhibited enteritis more than the drinking water containing all five D-amino acids” and the “body weight reduction suppressing effect” value was “significantly inhibited enteritis more than the drinking water containing all five D-amino acids”.
